Experimental data reported in the OPERA property sets (Mansouri et al. 2018).
In brackets after ≈: the same amount, converted by molar mass.

conditions: not given

logP	SMILES
0.52	CC(=O)OCOc1ccccc1C(N)=O
1.66	CCCC(=O)OCOc1ccccc1C(N)=O
2	CC(C)(C)C(=O)OCOc1ccccc1C(N)=O

Second part, the compound before the results:

SMILES	logP
CCC(C(=O)OCCc1ccccc1)C(COC(=O)c1ccccc1)Cc1cncn1C (stereo not given)	4.6
CC(=O)OCOc1ccccc1C(=O)NCN1CCOCC1	0.27
CCCC(=O)OCOc1ccccc1C(=O)NCN1CCOCC1	1.34
O=C(NCN1CCOCC1)c1ccccc1O	1.27
CCOC(=O)CC(CO)C(CC)c1cncn1C (stereo not given)	0.73
CC(C)(C)C(=O)OCOc1ccccc1C(=O)NCN1CCOCC1	1.81

same assay, conditions: 23 °C

SMILES	solubility [µM]
CC(C)(C)C(=O)OCOc1ccccc1C(N)=O	2430 (≈ 610 µg/mL)
